pIC50, pKd: −log10 of the molar value.

The values below come from patent US8299093B2, “Small molecule inhibitors of retroviral assembly and maturation” (New York Blood Center, Inc., priority 2008, dated 2012).

For data set [1], the system named is HIV-1. The conditions noted are these: cited from earlier work.
Data set [2] relates to HIV-1. The data set is described as follows: Inhibition of HIV-1 infectivity (p24 ELISA) in MT-2 cells, laboratory-adapted HIV-1 strains. The format is cell-based. For orientation: ELISA stands for enzyme-linked immunosorbent assay.
In the next data set the test system is HIV-1 RF. The data set is described as follows: Antiviral activity (p24) against HIV-1 RF in MT-2. Format: cell-based. The conditions noted are these: Human immunodeficiency virus 1, subtype B, MT-2, X4, laboratory strain. As to the method:
(§1) AZT was used as a positive control in the infectivity assays. In brief, 1×10^4 MT-2 cells (lymphocytes) were infected with HIV-1 at 100 TCID50 (50% tissue culture infective dose, 0.01 MOI [multiplicity of infection]) in 200 μL RPMI 1640 medium containing 10% FBS in the presence or absence of small molecules at graded concentrations overnight. The culture supernatants were then removed and fresh media containing freshly prepared test compounds were added. On the fourth day post-infection, 100 μL of culture supernatants were collected from each well, mixed with equal volume of 5% TRITON X-100® and tested for p24 antigen by ELISA®. The IC50 values were calculated by the GraphPad Prism software (GraphPad Software®, Inc.) and the values were classified as IC50<10 μM and IC50>10 μM.
(§2) The molecules in Tables 3 include the calculated IC50 values and use “A1” to denote IC50<10 μM and “B1” to denote IC50>10 μM and “C1” to denote CC50<50 μM and “D1” to denote […].

A further data set deals with HIV-1 IIIB. The data set is described as follows: Antiviral activity (p24) against HIV-1 IIIB in MT-2. The format is cell-based. Conditions: Human immunodeficiency virus 1, subtype B, MT-2, X4, laboratory strain. Here is the method: as §1, §2
The next data set relates to HIV-1 MN. The data set is described as follows: Antiviral activity (p24) against HIV-1 MN in MT-2. The format is cell-based. Conditions: Human immunodeficiency virus 1, subtype B, MT-2, X4, laboratory strain. Here is the method: as §1, §2
The subject of data set [3] is Gag-Pol expressing 293 T cells. The experiment in a line: Cell-based mature particle formation (VLP), electron microscopy of Gag-Pol transfected 293 T cells. Also noted: species or system HIV-1. As to the method: In the cell-based system, the impact of NYAD-S6 on virus-like particle (VLP) release and morphology was analyzed by electron microscopy one day post-transfection with plasmid encoding Gag-Pol. Forty thousand 293 T cells were seeded per well in a 6-well plate on the day before transfection. […] The cells were then fixed in 3% glutaraldehyde in 100 mM sodium cacodylate for 1 hour and post-fixed in 1% OsO4 in 100 mM sodium cacodylate for another 1 hour. Specimens were then dehydrated through graded series of ethanol solutions and embedded in EPON® media. After staining with uranyl acetate and lead citrate, ultra-thin sections were examined under a Philips EM410 electron microscope.
In the case of untreated cells transfected with a Gag-Pol expression vector, a large number of mature particles containing electron-dense core structures were found (FIG. 2A).

The nature of data set [4]: XTT cytotoxicity assay in PBMC. Format: cell-based. The conditions noted are these: human. As to the method: Cytotoxicity of small molecules in cultures with MT-2 cells and PBMC was measured by the tetrazolium hydroxide XTT (sodium 3′-(1-(phenylamino)-carbonyl)-3,4-tetrazolium-bis(4-methoxy-6-nitro) benzenesulfonic acid hydrate) cytotoxicity assay, as previously described (Jiang et al., 2004). Briefly, for MT-2 cells, 100 μL of small molecule at graded concentrations was added to an equal volume of cells (5×10^4 cells/ml) in 96-well plates followed by incubation at 37° C. for 4 days, which ran parallel to the neutralization assay in MT-2 (except medium was added instead of virus). In the case of PBMC, 2.5×10^5 cells/mL were used and the cytotoxicity was measured after 7 days. After addition of XTT (PolySciences, Inc.), the soluble intracellular formazan was quantitated calorimetrically at 450 nm 4 hours later with a reference at 620 nm. The CC50 values were calculated.
Background: Tetrazolium dyes change colour on reduction, which living cells bring about.

Another data set has as its system HIV-1 AZT-R. The experiment in a line: Antiviral activity (p24) against RT-resistant isolate AZT-R in MT-2. Format: cell-based. Conditions: Human immunodeficiency virus 1. Here is the method:
as §1, §2

The test system of another data set is HIV-1 BaL. The experiment in a line: Antiviral activity (p24) against HIV-1 BaL in PBMC. Conditions: Human immunodeficiency virus 1, subtype B, R5, laboratory strain. The format is cell-based. As to the method: as §1
(§3) Peripheral blood mononuclear cells (PBMCs) were isolated from the blood of healthy donors by standard density gradient centrifugation using Histopaque-1077 (Sigma). The cells were cultured at 37° C. for 2 hours. Nonadherent cells were collected and resuspended at 5×10^6 cells/ml RPMI-1640 medium containing 10% FBS, 5 μg/ml PHA, and 100 U/ml IL-2 (Sigma), followed by incubation at 37° C. for 3 days. The PHA-stimulated cells (5×10^4 cells/well) were infected with primary HIV-1 isolates at 500 TCID50 (0.01 MOI) in the absence or presence of small molecule inhibitor at graded concentrations. Culture media were changed every 3 days and replaced with fresh media containing freshly prepared inhibitor. The supernatants were collected 7 days post-infection and tested for p24 antigen by ELISA. The inhibition of p24 production in PBMC was measured over a range of concentrations and the concentration required to inhibit 50% (IC50) of the p24 production was calculated by the GraphPad Prism software.
as §2

In the next data set the test system is HIV-1 RU570. The data set is described as follows: Antiviral activity (p24) against primary isolate RU570 in PBMC. Format: cell-based. The conditions noted are these: Human immunodeficiency virus 1, RU570, subtype G, R5, primary isolate. As to the method: as §3, §2
A further data set deals with HIV-1 SF2. The experiment in a line: Antiviral activity (p24) against HIV-1 SF2 in MT-2. Format: cell-based. Conditions: Human immunodeficiency virus 1; SF2, subtype B, MT-2, R5X4, laboratory strain. Here is the method:
as §1, §2

The next data set has as its system HIV-1 93IN101. The data set is described as follows: Antiviral activity (p24) against primary isolate 93IN101 in PBMC. The format is cell-based. Conditions: Human immunodeficiency virus 1, 93IN101, subtype C, R5, primary isolate. Here is the method:
as §3, §2

The next data set relates to HIV-1RF/L-323-12-3. The data set is described as follows: Antiviral activity (p24) against protease resistant isolate HIV-1RF/L-323-12-3 in MT-2. Format: cell-based. The conditions noted are these: Human immunodeficiency virus 1. Here is the method:
as §1, §2

A further data set deals with HIV-1 93Br020. The experiment in a line: Antiviral activity (p24) against primary isolate 93Br020 in PBMC. The format is cell-based. The conditions noted are these: Human immunodeficiency virus 1, 93Br020, subtype F, R5X4, primary isolate. Here is the method:
as §3, §2

For a further data set, the system named is HIV-1 92US657. The data set is described as follows: Antiviral activity (p24) against primary isolate 92US657 in PBMC. The format is cell-based. The conditions noted are these: Human immunodeficiency virus 1, 92US657, subtype B, R5, primary isolate. Here is the method: as §3, §2
Data set [5] is described as follows: XTT cytotoxicity assay in MT-2 cells. The format is cell-based. Conditions: human. The essentials: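 MT-2 cells (5×10^4 cells/ml) exposed to graded compound concentrations for 4 days at 37 °C without virus; PBMC (2.5×10^5 cells/mL) for 7 days. XTT formazan read at 450 nm (620 nm reference) after 4 h; CC50 calculated.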
Another data set has as its system HIV-1 BCF02. The data set is described as follows: Antiviral activity (p24) against primary isolate BCF02 in PBMC. Format: cell-based. The conditions noted are these: Human immunodeficiency virus 1, BCF02, Group (O), R5, primary isolate. As to the method: as §3, §2
For data set [6], the system named is HIV-1. The conditions noted are these: cited from earlier work. The source holds these as a separate data set.
The next data set has as its target HIV-1 capsid (Human immunodeficiency virus type 1 group M subtype B, UniProt P04591). Conditions: read-out: Binding affinity (Kd); cited from earlier work.

Consider `C=C(C)[C@@H]1CC[C@]2(C(=O)O)CC[C@]3(C)[C@H](CC[C@@H]4[C@@]5(C)CC[C@H](OC(=O)CC(C)(C)C(=O)O)C(C)(C)[C@@H]5CC[C@]43C)[C@@H]12` [PA-457], for which, in the data set with HIV-1 [1], the “Antiviral potency in cell culture” value is given as “low nM”.

For `Cc1ccc2[nH]c(=O)c(CN(Cc3ccco3)C(=O)c3ccc(Cl)cc3)cc2c1` [NYAD-S6], the pIC50 was > 5.00 in the data set on HIV-1 [2] (Human immunodeficiency virus 1, MT2, 96 h, read-out: IC50 (concentration that provides 50% inhibition of HIV-1 p24), Table 1, formula I, MT-2 cells, p24 ELISA day 4); > 5.00 in the data set with HIV-1 RF; > 5.00 with HIV-1 IIIB; > 5.00 with HIV-1 MN; > 5.00 in the data set with HIV-1 AZT-R; > 5.00 in the data set on HIV-1 BaL. For the same compound, the pIC50 in the data set on HIV-1 RU570, in the data set with HIV-1 SF2, in the data set on HIV-1 93IN101, in the data set with HIV-1RF/L-323-12-3, with HIV-1 93Br020 and in the data set on HIV-1 92US657 was > 5.00 in each case. For the same compound, the pIC50 in the data set with HIV-1 BCF02 is > 5.00. The “Activity against a broad range of HIV-1 laboratory-adapted and primary isolates” value in the data set with HIV-1 [2] (including one RT-inhibitor-resistant and one protease-inhibitor-resistant isolate (summary of Table 3)) was “consistently potent activity”. The “Formation of electron-dense core structures” value in data set [3] (0.4 μM), in data set [3] (2 μM) and in data set [3] (10 μM) was “markedly inhibited” throughout. Besides, the Mature particle formation entry in data set [3] (FIGS. 2A-D, 0.4, 2 and 10 μM vs control) is “dramatic decrease in mature particle formation”. For the same compound, the CC50 at 7 days in data set [4] was > 50 µM. The CC50 at 4 days in [5] (MT-2 cells, 4 days) was > 50 µM. Moreover, the CC50 in data set [5] (Table 1, formula I, cell type not given, read-out: CC50 (concentration that causes 50% cytotoxicity)) is > 10 µM.

For `Cc1ccc(NC(=O)NCCSCc2ccc(CN(C)C)o2)cc1Cl` [CAP-1], the “HIV-1 inhibition in viral infectivity assays” value in the data set on HIV-1 [6] is listed as “dose-dependent HIV-1 inhibition”. The pKd on HIV-1 capsid was ~3.10.

As a reminder, the pKd is the negative decadic logarithm of the Kd, by convention in mol/L.
